Source: patent US10731159B2, “Cationic lipid” (DAIICHI SANKYO COMPANY, LIMITED, priority 2013, dated 2020)

How the values were obtained:
[1] = Average particle size of nucleic acid lipid particle (NICOMP 380ZLS); format: physicochemical
Protocol: The particle size of the liposome was measured using Zeta Potential/Particle Sizer NICOMP™ 380ZLS (Particle Sizing Systems, LLC). In the tables, the average particle size is indicated by a volume-average particle size, and the numeric value following ±represents a deviation.

[2] = Rate of encapsulation of polynucleotide/mRNA (Quant-iT RiboGreen, with and without Triton X-100); format: physicochemical
Protocol: The rate of encapsulation of the double-stranded polynucleotide was measured using Quant-iT RiboGreen RNA Assay kit (Invitrogen Corp.) according to the attached document.
Specifically, the double-stranded polynucleotide in the nucleic acid lipid particle dispersion was quantified in the presence and absence of a 0.015% Triton X-100 detergent, and the rate of encapsulation was calculated according to the following expression: {[Amount of the double-stranded polynucleotide in the presence of the detergent]−[Amount of the double-stranded polynucleotide in the absence of the detergent]}/[Amount of the double-stranded polynucleotide in the presence of the detergent]}×100(%) (3) Ratio of Double-Stranded Polynucleotide to Lipid
The rate of encapsulation of the mRNA was measured using Quant-iT RiboGreen RNA Assay kit (Invitrogen Corp.) according to the attached document.
Specifically, the mRNA in the nucleic acid lipid particle dispersion was quantified in the presence and absence of a 0.015% Triton X-100 detergent, and the rate of encapsulation was calculated according to the following expression: {[Amount of the mRNA in the presence of the detergent]−[Amount of the mRNA in the absence of the detergent]}/[Amount of the mRNA in the presence of the detergent]}×100(%) (3) Ratio of mRNA to Lipid

[3] = Ratio of polynucleotide/mRNA to lipid (wt/wt); format: physicochemical
Protocol: The nucleic acid lipid particle dispersion was mixed with acetonitrile and chloroform at a ratio of 1:1:1 and centrifuged at 15,000 rpm for 2 minutes. Then, the aqueous layer obtained as an upper layer was recovered, followed by the extraction of the double-stranded polynucleotide. The amount of the double-stranded polynucleotide in the sample was measured by ion-exchange chromatography (system: Agilent 1100 series, column: TSKgel DEAE-2SW (2.6×150 mm) (Tosoh Corp), buffer A: 20% acetonitrile, buffer B: 20% acetonitrile and 1.6 M ammonium formate, gradient (B %): 30-55% (0-20 min), flow rate: 1 mL/min, temperature: 40° C., detection: 260 nm).
The amount of the phospholipid in the nucleic acid lipid particle dispersion was measured using Phospholipid C-Test Wako (Wako Pure Chemical Industries Ltd.) according to the attached document. Specifically, the phospholipid in the sample was quantified in the presence of a 1% Triton X-100 detergent.
The amounts of cholesterol and LP in the nucleic acid lipid particle dispersion were measured by reverse-phase chromatography (system: Agilent 1100 series, column: Chromolith Performance RP-18 endcapped 100-3 monolithic HPLC-column (Merck), buffer A: 0.01% trifluoroacetic acid, buffer B: 0.01% trifluoroacetic acid and methanol, gradient (B %): 87-92% (0-10 min), flow rate: 2 mL/min, temperature: 50° C., detection: 205 nm).
The total amount of lipids was calculated from the amount of the phospholipid and the compositional ratio of lipid components constituting the liposome, and the ratio of the polynucleotide to the lipid was calculated from the aforementioned amount of the polynucleotide and the total amount of lipids according to the following expression: [Double-stranded polynucleotide concentration]/[Total lipid concentration] (wt/wt)
The total amount of lipids was calculated from the amount of the phospholipid, the amount of cholesterol, and the amount of LP, and the compositional ratio of lipid components constituting the liposome, and the ratio of the polynucleotide to the lipid was calculated from the aforementioned amount of the polynucleotide and the total amount of lipids according to the following expression: [Double-stranded polynucleotide concentration]/[Total lipid concentration] (wt/wt)
The amount of the double-stranded polynucleotide in a sample from the nucleic acid lipid particle dispersion was measured in the presence of a 5% Triton X-100 detergent by ion-exchange chromatography (system: Agilent 1100 series, column: DNAPac PA200 (4×250 mm) (Thermo Fisher Scientific K.K.), buffer A: 10 mM Tris, 25 mM sodium perchlorate, and 20% ethanol, pH 7.0, buffer B: 10 mM Tris, 250 mM sodium perchlorate, and 20% ethanol, pH 7.0, gradient (B %): 20-70% (0-15 min), flow rate: 0.5 mL/min, temperature: 40° C., detection: 260 nm).
The amounts of cholesterol and LP in the nucleic acid lipid particle dispersion were measured by reverse-phase chromatography (system: Agilent 1100 series, column: Chromolith Performance RP-18 endcapped 100-3 monolithic HPLC-column (Merck), buffer A: 0.01% trifluoroacetic acid, buffer B: 0.01% trifluoroacetic acid and methanol, gradient (B %): 82-92% (0-10 min), flow rate: 2 mL/min, temperature: 50° C., detection: 205 nm).
The total amount of lipids was calculated from the amount of the phospholipid, the amount of cholesterol, and the amount of LP, and the compositional ratio of lipid components constituting the liposome, and the ratio of the mRNA to the lipid was calculated from the “amount of the mRNA in the presence of the detergent” of the preceding paragraph (2) according to the following expression: [mRNA concentration in the presence of the detergent]/[Total lipid concentration] (wt/wt)

human β-catenin gene [4] = assay: Test Example 8: β-catenin gene expression inhibition in SW480 cells, procedures of Test Example 3, 50-0.05 nM; format: cell-based; settings: for inhibitory activity against β-catenin gene expression (in words): compared with particle containing lipid of Reference Example 2; for IC50: procedures of Test Example 3, 50, 5, 0.5, 0.05 nM, particles of Example 55, read-out: β-catenin gene expression inhibitory activity IC50
Protocol: (§1) The concentration of a human colorectal cancer SW480 cell line (derived from human colorectal adenocarcinoma) was adjusted to 50000 cells/mL in a RPMI1640 medium (manufactured by Invitrogen Corp.) containing 10% fetal bovine serum (culture medium). Then, the resulting culture solution was inoculated at 100 μL/well to a 96-well flat-bottomed plate (manufactured by Corning Inc./Falcon) and cultured at 37° C. for 1 day under 5.0% CO2. The nucleic acid lipid particle-containing dispersion prepared in Example 31 was diluted with a culture medium to prepare dilution series having final double-stranded polynucleotide concentrations of 30, 3, 0.3, and 0.03 nM in the medium. Then, each dilution was added to the cells after removal of the culture supernatant, and the culture was further continued for 4 hours. This operation was performed at N=3 for each concentration.
(§2) A lysate and cDNA for real-time PCR measurement were prepared from the transfected cells using TaqMan® Fast-Cells-to-Ct kit (Life Technologies, Inc./Ambion) according to the instruction manual. In the lysate preparation, Lysis Solution supplemented with DNase I was used. The probes for real-time PCR used were TaqMan® Gene Expression Assays (CTNNB1, FAM probe) (Hs00355045_m1, manufactured by Applied Biosystems, Inc.) for the human β-catenin gene and a human GAPDH gene probe as an internal standard (VIC probe, Hs99999905_m1, manufactured by Applied Biosystems, Inc.). 5 μL of TaqMan® Fast Advanced Master Mix, 2 μL of RNase-Free Water, 0.5 μL of each gene probe, and 2 μL of the prepared cDNA solution were added per well of a 384-well PCR plate (manufactured by Applied Biosystems, Inc.) to bring the total amount to 10 μL, which was then loaded in ViiA™ 7 Real-time PCR system (manufactured by Applied Biosystems, Inc.) and subjected to PCR under conditions given below. The real-time PCR was carried out at N=4 for the cDNA prepared from the lysate.
(§3) The quantitative analysis was conducted by the ΔΔCt method.
By the same procedures as in Test Example 3, SW480 cells were treated with 50 nM, 5 nM, 0.5 nM, and 0.05 nM each of nucleic acid lipid particles each prepared using a novel lipid, and the strength of human β-catenin gene expression inhibitory activity was compared among these particles.

human β-catenin gene [5] = assay: Test Example 1: β-catenin gene expression inhibition in SW480 cells, 3 days, real-time PCR; format: cell-based; settings: for inhibitory activity against β-catenin gene expression (in words): compared with particle containing lipid of Reference Example 2; for IC50: nucleic acid lipid particle of Example 31 containing the named lipid, double-stranded polynucleotide concentration, read-out: β-catenin gene expression inhibitory activity IC50
Protocol: (§4) As described below, the strength of human β-catenin gene expression inhibitory activity was compared among nucleic acid lipid particles each prepared using a novel lipid.
as §1, with “to 50,000” for “to 50000”, “in an” for “in a”, “lipid particle” for “lipid particle-containing”, “30, 3.0,” for “30, 3,”, “for 3 days.” for “for 4 hours.”
as §2
(§5) PCR initial activation: 95° C. for 20 seconds
(§6) PCR: 95° C. for 1 second • 62° C. for 20 seconds
(§7) This PCR cycle was repetitively performed 40 times.
as §3

human β-catenin gene [6] = assay: Test Example 2: β-catenin gene expression inhibition in HepG2 cells, 3 days, real-time PCR; format: cell-based; settings: for inhibitory activity against β-catenin gene expression (in words): compared with particle containing lipid of Reference Example 2; for IC50: nucleic acid lipid particle of Example 31 containing the named lipid, read-out: β-catenin gene expression inhibitory activity IC50
Protocol: as §4
as §1, with “liver” for “colorectal”, “HepG2” for “SW480”, “liver cancer)” for “colorectal adenocarcinoma)”, “DMEM” for “RPMI1640”, “3 days.” for “4 hours.”
as §2, §5, §6, §7, §3

[7] = Example 55: particles prepared as in Example 31, ± deviation
[8] = Example 55: particles prepared as in Example 31 (β-catenin double-stranded polynucleotide)
[9] = Example 55: particles prepared as in Example 31
[10] = particles of Example 31, volume-average particle size ± deviation
[11] = particles of Example 31: DSPC:Chol:LP:PEG-C-DMA=20:48:30:2, CT-157/CT-169 double-stranded polynucleotide
[12] = particles of Example 31, total lipids calculated from phospholipid amount and compositional ratio (Table 3)

## CCCCCC[C@H](C/C=C\CCCCCCCCC(CCCCCCCC/C=C\C[C@@H](CCCCCC)OC(C)=O)OC(=O)OCCCN(C)C)OC(C)=O [Example 42, (7R,9Z,28Z,31R)-19-({[3-(Dimethylamino)propoxy]carbonyl}oxy)heptatriaconta-9,28-diene-7,31-diyl Diacetate]
[1]; [7]
  Average particle size: 188 ± 45 nm
[2]; [8]
  Rate of polynucleotide encapsulation: 97%
[3]; [9]
  Ratio of polynucleotide to lipid siRNA/lipid: 0.077 wt/wt
Human β-catenin gene [4]
  inhibitory activity against β-catenin gene expression (in words): strong inhibitory activity
  IC50: 6 nM

## CCCCC/C=C\C/C=C\CCCCCCCC(CCCCCCC/C=C\C/C=C\CCCCC)OC(=O)OCCCCN(C)C [Example 3, 4-(Dimethylamino)butyl(6Z,9Z,26Z,29Z)-pentatriaconta-6,9,26,29-tetraen-18-yl Carbonate]
[1]; [10]
  Average particle size: 187 ± 31 nm
[2]; [11]
  Rate of polynucleotide encapsulation: 98.6%
[3]; [12]
  Ratio of polynucleotide to lipid siRNA/lipid: 0.099 wt/wt
Human β-catenin gene [5]
  inhibitory activity against β-catenin gene expression (in words): strong inhibitory activity
  IC50: 0.44 nM
Human β-catenin gene [6]
  inhibitory activity against β-catenin gene expression (in words): strong inhibitory activity
  IC50: 0.35 nM

## CCCCCCCCCCCCC(CCCCCCC/C=C\C[C@@H](CCCCCC)OC(C)=O)OC(=O)OCCCN(C)C (stereo partly drawn) [Example 43, (7R,9Z)-18-({[3-(Dimethylamino)propoxy]carbonyl}oxy)triacont-9-en-7-yl Acetate]
[1]; [7]
  Average particle size: 174 ± 31 nm
[2]; [8]
  Rate of polynucleotide encapsulation: 97%
[3]; [9]
  Ratio of polynucleotide to lipid siRNA/lipid: 0.075 wt/wt
Human β-catenin gene [4]
  inhibitory activity against β-catenin gene expression (in words): strong inhibitory activity
  IC50: 24 nM

## CCCCCC[C@H](C/C=C\CCCCCCCC(CCCCCCC/C=C\C[C@@H](CCCCCC)OC(=O)CC)OC(=O)OCCCN(C)C)OC(=O)CC [Example 41, (7R,9Z,26Z,29R)-18-({[3-(Dimethylamino)propoxy]carbonyl}oxy)pentatriaconta-9,26-diene-7,29-diyl Dipropionate]
[1]; [7]
  Average particle size: 158 ± 40 nm
[2]; [8]
  Rate of polynucleotide encapsulation: 97%
[3]; [9]
  Ratio of polynucleotide to lipid siRNA/lipid: 0.101 wt/wt
Human β-catenin gene [4]
  inhibitory activity against β-catenin gene expression (in words): strong inhibitory activity
  IC50: 2.6 nM

## CCCCC/C=C\C/C=C\CCCCCCCC(CCCCCCC/C=C\C/C=C\CCCCC)OC(=O)OCCCN(C)C [Example 2, 3-(Dimethylamino)propyl(6Z,9Z,26Z,29Z)-pentatriaconta-6,9,26,29-tetraen-18-yl Carbonate]
[1]; [10]
  Average particle size: 215 ± 70 nm
[2]; [11]
  Rate of polynucleotide encapsulation: 96.3%
[3]; [12]
  Ratio of polynucleotide to lipid siRNA/lipid: 0.099 wt/wt
Human β-catenin gene [5]
  inhibitory activity against β-catenin gene expression (in words): strong inhibitory activity
  IC50: 6.8 nM
Human β-catenin gene [6]
  inhibitory activity against β-catenin gene expression (in words): strong inhibitory activity
  IC50: 0.47 nM
